Laboratory results: patent US6489342B2, “Aryloxy piperidinyl indoles for treating depression” (Wyeth, priority 2000, dated 2002)
Where a name gives a salt, the structure may show the parent alone.

Key:
5-HT1A = biological target: T1, 5-HT1A (Homo sapiens, UniProt P08908); experiment: 5-HT1A receptor binding, [3H]DPAT; conditions: radioligand [3H]DPAT
T1 sequence (P08908 1-422): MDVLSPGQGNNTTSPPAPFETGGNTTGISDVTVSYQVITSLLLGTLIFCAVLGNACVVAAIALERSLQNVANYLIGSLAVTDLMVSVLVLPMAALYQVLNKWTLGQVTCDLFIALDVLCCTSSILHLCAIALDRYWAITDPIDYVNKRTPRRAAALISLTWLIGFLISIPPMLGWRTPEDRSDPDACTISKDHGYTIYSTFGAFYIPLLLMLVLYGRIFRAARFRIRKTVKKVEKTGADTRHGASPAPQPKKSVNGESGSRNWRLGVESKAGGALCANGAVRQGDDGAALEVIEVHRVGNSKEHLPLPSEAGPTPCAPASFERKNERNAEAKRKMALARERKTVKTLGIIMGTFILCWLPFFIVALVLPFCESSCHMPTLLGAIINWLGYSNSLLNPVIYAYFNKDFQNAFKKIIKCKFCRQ

melting point | Compound | further results
– | Fc1ccc2[nH]cc(CC3CCN(CCOc4cccc5[nH]ccc45)CC3)c2c1 [Example 1, 5-Fluoro-3-{1-[2-(1H-indol-4-yloxy)ethyl]-piperidin-4-ylmethyl}-1H-indole] | Ki (5-HT1A): 47 nM
215 °C (dec.) | Fc1ccc2[nH]cc(CC3CCN(CCOc4cccc5[nH]ccc45)CC3)c2c1 (as salt: hydrochloride) (hydrate or solvate) [Example 1, 5-Fluoro-3-{1-[2-(1H-indol-4-yloxy)ethyl]-piperidin-4-ylmethyl}-1H-indole] | –
130 to 132 °C | CC(CN1CCC(Cc2c[nH]c3ccc(F)cc23)CC1)Oc1cccc2[nH]ccc12 (stereo not shown) (as salt: hydrochloride) [Example 2, 5-Fluoro-3-[[1-[2-(1H-indol-4-yloxy)propyl]-4-piperidinyl]methyl]-1H-indole] | –
– | CC(CN1CCC(Cc2c[nH]c3ccc(F)cc23)CC1)Oc1cccc2[nH]ccc12 (stereo not shown) [Example 2, 5-Fluoro-3-[[1-[2-(1H-indol-4-yloxy)propyl]-4-piperidinyl]methyl]-1H-indole] | 5-HT1A [3H]DPAT, percent at 100 nM (5-HT1A; @ 100 nM): 14% @
